# Several values for one entry are separate records, joined by “and”; a condition that tells them apart may be missing. Identical values can stand only once.
# Tests used:
# [1] = tested on: SARS-CoV-2; type: cell-based
# [2] = tested on: Vero E6 cells; experiment: Cytotoxicity, WST-1 cell proliferation assay; type: cell-based, African green monkey; settings: for concentration at which cytotoxic: Vero E6 cells
# [3] = tested on: SARS-CoV-2; type: cell-based; settings: 5 μM, 48 hours, anti-N and anti-S staining
# [4] = tested on: SARS-CoV-2; type: cell-based; settings: virus treated with 5 μM for 1 hour, MOI = 100, Vero E6
# [5] = 20 mg/kg, i.p. injection; cited from earlier work
# [6] = tested on: SARS-CoV-2; experiment: Viral particle inactivation / time-of-addition, plaque assay on Vero E6 cells; type: cell-based
# [7] = rat, mice and rabbits; cited from earlier work
# [8] = tested on: SARS-CoV-2; experiment: Plaque assay on A549^ACE2 cells with ethacridine-treated virus; type: cell-based; settings: 5 uM, 1 hr pre-incubation
# [9] = tested on: SARS-CoV-2 viral RNA; experiment: Viral RNA quantification by qRT-PCR in Vero cells and supernatant; type: cell-based; settings: 5 μM
# [10] = biological target: SARS-CoV-2 main protease Mpro (Severe acute respiratory syndrome coronavirus 2, UniProt P0DTD1); experiment: cell-based; settings: IC50 in inhibiting Mpro
compound,measurement,setting,value
"COc1ccc2c(O[C@@H]3C[C@H]4C(=O)N[C@]5(C(=O)NS(=O)(=O)C6CC6)C[C@H]5/C=C\CCCCN(C)C(=O)[C@@H]4C3)cc(-c3nc(C(C)C)cs3)nc2c1C [Simeprevir, simeprevir]",reduction in viral titer,[1],~ 4 log
"CC(=O)[C@@]1(O)CC[C@H]2[C@@H]3CCC4=CC(=O)CC[C@]4(C)[C@H]3CC[C@@]21C [Hydroxyprogesterone, hydroxyprogesterone]",reduction in viral titer,[1],~ 1 log
verteporfin,concentration at which cytotoxic,[2],5 to 13 µM
"CCOc1ccc2nc3cc(N)ccc3c(N)c2c1 [Ethacridine, ethacridine]",proportion of infected primary nasal cells,[3],dramatically decreased
same,detectable anti-N and anti-S fluorescence on cells,[4],dramatic reduction
same,toxicity in mice,[5],no toxicity
same,cell toxicity,[2]; Vero E6 (Fig. 3e),very little cell toxicity
same,"reduction in viral titer, DMSO + Eth.","[6]; 5 μM, drug added after viral entry",3 – 4 logs
same,"reduction in viral titer, Eth. + Eth.","[6]; 5 μM, drug present continuously prior to plaque assay, versus DMSO + DMSO",3 – 4 logs
same,"reduction in viral titer, Eth. + Eth.","[6]; 5 μM, plaque assay",2400 fold
same,"reduction in infectivity, Eth. [1 hr]","[6]; virus pre-incubated with drug 1 hr, plaque assay without drug",3 – 4 logs
same,toxicity in animal models,[7],non-toxic
same,infectivity of drug-treated virus on A549^ACE2 cells,[8],dramatic decrease in infectivity
same,reduction in viral titer,[1],5 – 6 log
same,"change of viral RNA (vRNA) levels, DMSO + Eth.","[9]; drug added after binding and entry, supernatant and cells",no change
same,"reduction in vRNA copies, Eth. + Eth.","[9]; drug present continuously, supernatant and within the cells",4 – 5 fold
same,IC50,[10],~3.54 µM and ~3.5 µM
"CCC(CC)COC(=O)[C@H](C)N[P@](=O)(OC[C@H]1O[C@@](C#N)(c2ccc3c(N)ncnn23)[C@H](O)[C@@H]1O)Oc1ccccc1 [Remdesivir, remdesivir]",reduction in viral titer,[1],~ 4 log
ivermectin,concentration at which cytotoxic,[2],5 to 13 µM
O=c1c2ccccc2[se]n1-c1ccccc1 [ebselen],reduction in viral titer,[1],~ 2 log
"C[C@@H](NCCCc1cccc(C(F)(F)F)c1)c1cccc2ccccc12 [Cinacalcet, cinacalcet]",reduction in viral titer,[1],~ 1 log

# Source: paper PMC7605555 (bioRxiv, 2020)
